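Protocol summary: plate cells (96-well), add compound at 5 concentrations, incubate 48 h, interpolate endpoints linearly. At the TGI there is no net growth.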
Assays:
Test in all cases: DTP human tumour cell line panel, 48 h
MOLT-4 leukemia = test system: MOLT-4 leukemia
CCRF-CEM leukemia = test system: CCRF-CEM leukemia
SF-268 CNS = test system: SF-268 CNS
CAKI-1 renal = test system: CAKI-1 renal
RPMI-8226 leukemia = test system: RPMI-8226 leukemia
NCI-H23 lung = test system: NCI-H23 lung
SF-539 CNS = test system: SF-539 CNS
SK-MEL-28 melanoma = test system: SK-MEL-28 melanoma
HL-60(TB) leukemia = test system: HL-60(TB) leukemia
SR leukemia = test system: SR leukemia
NCI-H522 lung = test system: NCI-H522 lung
HCT-116 colon = test system: HCT-116 colon
K-562 leukemia = test system: K-562 leukemia
UACC-62 melanoma = test system: UACC-62 melanoma
M14 melanoma = test system: M14 melanoma
SNB-19 CNS = test system: SNB-19 CNS
EKVX NSCLC = test system: EKVX NSCLC
MCF7 breast = test system: MCF7 breast
MDA-MB-231 breast = test system: MDA-MB-231 breast

Row | SMILES | TGI (MOLT-4 leukemia) [µM] | TGI (CCRF-CEM leukemia) [µM] | TGI (SF-268 CNS) [µM] | TGI (CAKI-1 renal) [µM] | TGI (RPMI-8226 leukemia) [µM] | TGI (NCI-H23 lung) [µM] | TGI (SF-539 CNS) [µM] | TGI (SK-MEL-28 melanoma) [µM] | TGI (HL-60(TB) leukemia) [µM] | TGI (SR leukemia) [µM] | TGI (NCI-H522 lung) [µM] | TGI (HCT-116 colon) [µM] | TGI (K-562 leukemia) [µM] | TGI (UACC-62 melanoma) [µM] | TGI (M14 melanoma) [µM] | TGI (SNB-19 CNS) [µM] | TGI (EKVX NSCLC) [µM] | TGI (MCF7 breast) [µM] | TGI (MDA-MB-231 breast) [µM]
1 | COc1cccc(NC(=S)Nn2c(C)nc3ccccc3c2=O)c1 | > 100 | > 100 | > 100 | > 100 | > 100 | > 100 | > 100 | > 100 | > 100 | > 100 | > 100 | > 100 | > 100 | > 100 | > 100 |  |  |  | 
2 | CC(C)(C)NN=C1C(C)(C)C(=NNC(C)(C)C)C1(C)C | > 100 |  | > 100 | > 100 | > 100 | > 100 | > 100 | > 100 | > 100 | > 100 | > 100 | > 100 | > 100 | > 100 | > 100 | > 100 |  |  | 
3 | CCCCc1c2c(nc3c1CCCC3O)/C(=C/c1ccccc1)CCC2 (stereo not drawn) | 38.7 | 43.9 | 85.3 |  | 46.2 | > 100 | 66.9 | 94.3 | 43 | 42 | 52.5 | > 100 | 40.5 | 95.7 | 53.8 | > 100 | 97.4 |  | 
4 | Clc1ccc(SCCSCCCCCCCCCCSCCSc2ccc(Cl)cc2)cc1 | > 100 | > 100 | > 100 | > 100 | > 100 | > 100 | > 100 | > 100 | > 100 |  | > 100 |  | > 100 | > 100 |  | > 100 | > 100 |  | 
5 | CCCC/C=C/C1Cc2ccccc2CN1S(=O)(=O)c1ccc(C)cc1 (stereo not drawn) | 53.3 | 42.3 | 30 |  | 5.72 | 16.4 | 33 | 22.7 | > 100 | 41.8 | 20.2 | 3.35 | > 100 | 27.5 | 26 | > 100 | > 100 |  | 
6 | CC(=O)O/N=C/c1ncccc1OC(C)=O | > 100 | > 100 | > 100 | > 100 |  | > 100 | > 100 | > 100 | > 100 | > 100 | > 100 | > 100 | > 100 | > 100 | > 100 | > 100 | > 100 |  | 
7 | CCOC(=O)C(=O)Nc1c(F)cc(F)cc1Br | > 100 | > 100 | > 100 | > 100 | > 100 | > 100 | > 100 | > 100 | > 100 | > 100 |  | > 100 | > 100 | > 100 | > 100 | > 100 | > 100 |  | 
8 | CCCn1c(SCC)c2ccccc2c1-c1nc(F)nc(F)n1 | > 100 | > 100 | > 100 | > 100 | > 100 | > 100 | > 100 | > 100 | > 100 | > 100 | > 100 | > 100 | > 100 |  | > 100 | > 100 | > 100 |  | 
9 | COC(=O)C1=C(C(=O)OC)C2(OC(C)=O)c3ccccc3-c3ccccc3C12 (stereo not drawn) |  |  | 22 | 6.08 | 6.56 | 25.6 | 31.6 | 11.9 |  | 16.5 | 2.8 | 7.98 |  | 24.4 | 9.47 | > 55 | 24.1 |  | 
10 | CSC(C1c2ccccc2N(C)C2=NC(=O)N(C)C(=O)C21Cl)S(=O)(=O)c1ccc(C)cc1 (stereo not drawn) | 40.8 | 28.3 | > 100 | 48 | 57.8 | 83.5 | > 100 | 75.4 | 39.7 |  | 30.8 | > 100 | 43.5 | > 100 |  | > 100 | > 100 |  | 
11 | Nc1nc(SCCNC(=O)CCc2ccc(O)cc2)nc2c1ncn2C1OC(CO)C(O)C1O (stereo not drawn) | > 203 | > 203 | > 203 | > 203 | > 203 | > 203 | > 203 | > 203 | > 203 | > 203 | > 203 | > 203 | > 203 | > 203 | > 203 | > 203 |  |  | 
12 | CCCN(CCCC(NC(C)=O)C(=O)NCc1ccccc1)C(=O)NC (stereo not drawn) | > 100 | > 100 | > 100 | > 100 | > 100 | > 100 | > 100 | > 100 |  |  | > 100 | > 100 | > 100 | > 100 | > 100 | > 100 | > 100 |  | 
13 | COC1=CC(=O)[C@H]2[C@H](C)C(c3ccccc3)[C@@]2(C)C1=O (stereo partly drawn) | > 100 | > 100 | > 100 | > 100 | > 100 | > 100 | > 100 | > 100 | > 100 | > 100 | > 100 |  | > 100 | > 100 | > 100 | > 100 | > 100 |  | 
14 | O=c1cc(N2CCOCC2)[nH]c(=O)n1-c1cccc(C(F)(F)F)c1 | > 100 | > 100 | > 100 | > 100 |  | > 100 | > 100 | > 100 | > 100 | > 100 | > 100 | > 100 | > 100 | > 100 | > 100 |  | > 100 | > 100 | 57
15 | N#Cc1c(-c2ccco2)cc(-c2ccc(NCc3nc4ccccc4[nH]3)cc2)nc1N | 39.7 | > 100 | > 100 | > 100 | 62 | 48.8 | 47.6 | 67.5 | 47.3 |  | 55.5 | 45.9 | 71.7 | 45.1 | 35.8 | > 100 |  |  | 
16 | NC(=O)N1N=C2c3ccccc3CC[C@@H]2C1c1ccccc1 (stereo partly drawn) | > 100 | > 100 | > 100 | > 100 | > 100 | > 100 | > 100 | > 100 | > 100 |  | > 100 | > 100 | > 100 | > 100 | > 100 | > 100 | > 100 |  | 
17 | CCNC1(c2cccc(C)c2)OC(C)(C)c2cccc3cccc1c23 (stereo not drawn) |  | 26.4 | 30.9 | 48.1 | 15.8 | 34 | 34.9 |  | 19.7 | 35.9 | 29.6 | 97.4 | > 100 | 31 | 38.1 | 33.6 | 38 | 34.9 | 
18 | COC(=O)C(CCCC1(c2ccccc2)OCCO1)C(C)=O (stereo not drawn) | > 100 | > 100 | > 100 |  |  | > 100 | > 100 | > 100 | > 100 | > 100 | > 100 | > 100 | > 100 |  | > 100 | > 100 | > 100 |  | 
19 | COc1ccc(/C(=N/NC(=O)NN)C(c2ccc(OC)cc2)C2(O)CNc3c(Cl)cc(Cl)cc32)cc1 (stereo not drawn) | > 100 | > 100 | > 100 |  | > 100 | > 100 | > 100 | > 100 | > 100 |  | > 100 | > 100 | > 100 | > 100 | > 100 | > 100 | > 100 |  | 
20 | CCc1n[nH]c(=O)n1/N=C/c1ccccc1Cl | > 100 | > 100 | > 100 | > 100 | > 100 | > 100 | > 100 | > 100 | > 100 | > 100 | > 100 | > 100 | > 100 | > 100 | > 100 | > 100 | 29.4 | > 100 | > 100
21 | COc1cc2c(c(C)c1O)[C@H]1COc3ccccc3[C@H]1O2 | 42.7 | 56.6 | 96.1 | 30 | 75.3 | 64.2 | 36.7 | > 100 | 12.7 |  | 13.5 | 18.7 | 56.5 |  | 24.6 | 26.7 | 74.7 |  | 
22 | COC(OC)c1cccc2c1C(=O)CCC1(O)c3ccccc3C1C2 (stereo not drawn) | > 100 | > 100 | > 100 |  | 69.8 | > 100 | > 100 | > 100 | > 100 | > 100 | > 100 | > 100 | > 100 | > 100 | > 100 | > 100 | > 100 |  | 
23 | Cc1cc(N(CCC#N)S(C)(=O)=O)ccc1C=O | > 100 | > 100 | > 100 | > 100 | > 100 | > 100 | > 100 | > 100 | > 100 | > 100 | > 100 | > 100 | > 100 | > 100 | > 100 | > 100 |  |  | 

— PubChem BioAssay (NCI)
